Laboratory results from the NIST ThermoML archive (doi:10.1021/je034162x).

Settings: 101.33 kPa, Liquid, Hot wire method

CC(C)=C(C)C [2,3-dimethyl-2-butene]
Settings	thermal conductivity [W/m/K]	thermal diffusivity [m2/s]
258.89 K	0.1356	–
259.17 K	0.1355	–
259.37 K	0.1354	–
260.14 K	–	9.38e-08
260.96 K	–	9.41e-08
261.54 K	–	9.41e-08
278.21 K	0.1285	–
278.5 K	0.1283	–
278.72 K	0.1283	–
279.54 K	–	8.88e-08
280.38 K	–	8.85e-08
281 K	–	8.85e-08
294.09 K	0.1228	–
294.4 K	0.1226	–
294.63 K	0.1225	–
295.49 K	–	8.48e-08
296.37 K	–	8.44e-08
297.02 K	–	8.45e-08
312.76 K	0.1162	–
313.09 K	0.116	–
313.34 K	0.1159	–
314.2 K	–	7.96e-08
315.15 K	–	7.95e-08
315.82 K	–	7.94e-08
322.4 K	0.1128	–
322.74 K	0.1126	–
322.98 K	0.1125	–
323.81 K	–	7.58e-08
324.73 K	–	7.56e-08
325.39 K	–	7.54e-08
326.42 K	0.1116	–
326.77 K	0.1115	–
327.02 K	0.1114	–
327.89 K	–	7.6e-08
328.9 K	–	7.63e-08
329.57 K	–	7.59e-08

[2H]c1c([2H])c([2H])c([2H])c([2H])c1[2H] [benzene-d6]
Settings	thermal conductivity [W/m/K]	thermal diffusivity [m2/s]
280.76 K	0.1398	–
281.06 K	0.1397	–
281.26 K	0.1396	–
282.09 K	–	8.1e-08
282.98 K	–	8.15e-08
283.58 K	–	8.12e-08
291.53 K	0.1364	–
291.83 K	0.1363	–
292.04 K	0.1362	–
292.92 K	–	7.93e-08
293.83 K	–	7.96e-08
294.46 K	–	7.95e-08
304.05 K	0.1323	–
304.37 K	0.1322	–
304.59 K	0.1321	–
305.49 K	–	7.7e-08
306.42 K	–	7.69e-08
307.08 K	–	7.69e-08
316.34 K	0.1284	–
316.66 K	0.1283	–
316.89 K	0.1282	–
317.82 K	–	7.46e-08
318.77 K	–	7.45e-08
319.44 K	–	7.44e-08
326.75 K	0.1252	–
327.08 K	0.125	–
327.31 K	0.1249	–
328.26 K	–	7.25e-08
329.22 K	–	7.23e-08
329.88 K	–	7.2e-08

c1ccccc1 [benzene]
Settings	thermal conductivity [W/m/K]	thermal diffusivity [m2/s]
281.18 K	0.1464	–
281.49 K	0.1462	–
281.76 K	0.1461	–
282.86 K	–	9.74e-08
283.9 K	–	9.74e-08
284.75 K	–	9.72e-08
295.92 K	0.1416	–
296.25 K	0.1414	–
296.53 K	0.1413	–
297.67 K	–	9.4e-08
298.78 K	–	9.44e-08
299.68 K	–	9.44e-08
301.25 K	0.1399	–
301.59 K	0.1398	–
301.87 K	0.1396	–
303.02 K	–	9.29e-08
304.13 K	–	9.31e-08
305.05 K	–	9.29e-08
319.14 K	0.134	–
319.49 K	0.1338	–
319.79 K	0.1337	–
321.04 K	–	8.97e-08
322.15 K	–	8.92e-08
323.12 K	–	8.9e-08
